Test results taken from a melting point compilation (Tetko et al.; mined from patent text by program, amines drawn as free bases though some values may be those of a salt).

melting point	Compound
300 to 304 °C	O=C(O)c1ccc(-c2ccc(S(=O)(=O)N3CCCC(CO)C3)cc2)[nH]c1=O (configuration not stated)
168 to 170 °C	COc1cc([N+](=O)[O-])c(CCCCC(=O)O)c([N+](=O)[O-])c1O
195 to 196 °C	CCc1cn(C2CC(O)C(CNC(=O)Cc3ccccc3N)O2)c(=O)[nH]c1=O (configuration not stated)
129 to 130 °C	CCCCc1ccc(C2(C)OC(=C(C#N)C#N)C(C#N)=C2C)cc1 (configuration not stated)
125 to 130 °C	CC(C)(C)OC(=O)NCCNC(=O)c1ncccc1Br
173 to 175 °C	Cc1c(Cl)ccc(C(=O)O)c1Cl
161 to 162 °C	COc1cc2c(cc1OC(C)=O)CCC1C2CCC2(C)C1C=CC21OCCO1 (configuration not stated)
178 °C	C=COC(=O)N1C[C@@H]2C(=O)CCC(c3ccccc3)(c3ccccc3)[C@@H]2C1 (racemic)
214 to 215 °C	CN(Cc1ccccc1)c1ncnc2c(N3CCS(=O)CC3)nc(N3CCNCC3)nc12
78 to 79 °C	O=C(Cl)c1cscc1S(=O)(=O)Cl
190 °C	CCOC(=S)C(C=P(c1ccccc1)(c1ccccc1)c1ccccc1)C(=O)C(F)(F)F (configuration not stated)
117 to 118 °C	CC(C)(CCCc1cccnc1)NC(=O)Cc1ccccc1[N+](=O)[O-]
70 °C	CCOC(=Cc1ccc(-c2cccc(N(C)C(=O)NCCc3ccccc3)c2)cc1)C(=O)O
230 to 250 °C	Cc1cc(O)ccc1-n1cc(C(=O)O)c(=O)cc1C=O
78 to 79 °C	COc1ccc(C[C@H](N)[C@H](O)c2ccc(F)cc2)cc1 (racemic)
169 to 174 °C	CN(C)CCSc1c2ccccc2c(-c2cc(Br)c(O[C@H](Cc3ccccc3)C(=O)O)c(Br)c2)c2c1sc1ccccc12
86 °C	CC(C)(C)C1OCCO1
31 °C	CC(=O)CSc1nnnn1C
120 to 122 °C	COC(=O)C1(CC#N)C(=O)N(C)C(=O)c2ccccc21 (configuration not stated)
106 to 110 °C	NC(Oc1ccccc1)C(O)CCCNc1ccc(Br)cc1 (configuration not stated)
284 to 286 °C	Cn1c(=O)c(-c2ccc(Cl)cc2Cl)cc2c3cc(-c4cc(N)n[nH]4)ccc3n(C)c21
170 to 171 °C	Nc1ccc(CNc2n[nH]c3ncnc(Nc4cccc(Cl)c4)c23)cc1

melting point	Compound
255 °C	O=C(NCC(=O)N1[C@@H](c2ccccc2)CC[C@H]1c1ccccc1)Nc1cccc(C(=O)O)c1
> 250 °C	O=C(O)Cn1cc(C(=O)O)c(=O)c2cc(O)ccc(=O)c21
260 to 264 °C	Cc1cc(C2=NN=C(C=NNC(N)=O)Cc3cc4c(cc32)OCO4)ccc1[N+](=O)[O-]
105 to 108 °C	O=C(O)c1ccc(S(=O)(=O)Oc2ccc(-c3ccc(-c4c(C(=O)c5ccccc5)oc5ccccc45)cc3)cc2C2CCCC2)cc1O
137 to 141 °C	C1=C(c2ccc3ccccc3c2)CCC2(C1)CCNCC2
122 to 124 °C	COc1ccc([C@@H]2CN(C)CC[C@@H]2NC(=O)c2cccc(C(F)(F)F)c2)cc1OC (relative stereo)
225 to 227 °C	Cc1nc(O)cc2sccc12
> 230 °C	CC(C)(C)OC(=O)N1c2ncc(Br)cc2C=CC1N (configuration not stated)
79 to 82 °C	CCCCCN(CCCOC)C(=O)C(CCC(=O)O)CS(=O)(=O)c1ccc2ccccc2c1 (configuration not stated)
172 to 174 °C	O=CN1CCC(C(c2ccccc2)c2ccccc2)CC1
140 to 151 °C	CCOC(=O)N1CCOC(CNC(=O)c2cc(Cl)c(N)cc2OC)C1 (configuration not stated)
218 °C	Cc1cc(OCc2c(-c3c(Cl)cccc3Cl)noc2C(C)C)cnc1NC(=O)c1ccc(C(=O)O)cc1
125 to 127 °C	O=C(O)CCc1ccc(OCc2ccccc2)cc1OCc1ccccc1
148 to 149 °C	Cc1ccc(OCc2c(F)cccc2Cl)c(NC(=N)Nc2ccc(Cl)cc2)n1
150 °C	O=C(NCC1CCN(CC2(C(=O)O)CCC2)CC1)N1C(=O)C2(CCCC2)c2ccc(F)cc21
158 °C	Cc1sc(N)c(C#N)c1Cl
125 to 126 °C	N#CC1CCSc2[nH]c3ccccc3c21 (configuration not stated)
155 to 158 °C	CC(C)=C1C(=O)N(c2cccc3c(N)cccc23)C(=O)/C1=C(\C)c1cc(-c2ccccc2)sc1C
253 to 257 °C	CC(C)C1(C)NC(c2nc(-c3ccsc3)ccc2C(=O)O)=NC1=O (configuration not stated)
140 to 150 °C	CC(=O)Oc1c(C2CCN(CCCCNC(=O)c3ccc(-c4ccc(C#N)cc4)cc3)CC2)ccc2c1CCCC2
172 to 175 °C	COc1ccnc(CSc2nc3cscc3[nH]2)c1
141 °C	COC(=O)C(Oc1cc(-n2c(=O)cc(C(F)(F)F)n(C)c2=O)c(F)cc1Cl)C(=O)OC

melting point	Compound
157 to 158 °C	CC(C)(C)c1ccc(CCNc2ncnc3ccncc23)cc1
201 to 203 °C	Cc1cc(-c2sc(N3CCN(Cc4ccc(C(F)(F)F)cc4)C3=O)nc2C)on1
88.7 to 94.9 °C	COC(=O)C(Cc1cccc(C2(OC)CCOCC2)c1)c1nc(-c2ccccc2)c(-c2ccc(S(N)(=O)=O)cc2)o1 (configuration not stated)
239 to 240 °C	O=C(O)c1ccc(-c2nnn[nH]2)cc1Sc1ccccc1
202 to 204 °C	CCn1cc(C(=O)O)c(=O)c2cc(F)c(N3CCNC(c4ccoc4)C3)cc21 (configuration not stated)
111 to 113 °C	COC(=O)C(C)Oc1ccc(NC(=O)CO)cc1 (configuration not stated)
124 to 125 °C	COc1cc(OC)nc(Sc2c([N+](=O)[O-])c(C)nn2C)n1
> 210 °C	NCC1Cc2cccc(-c3ccc(F)c(Cl)c3)c2O1 (configuration not stated)
192 to 193 °C	N#CCCNC(=O)c1cncc(-c2cccc3nn(Cc4cccc(C(F)(F)F)c4)cc23)c1
87 to 87.5 °C	CC(C)=CCCC(C)=CCNC(=O)Nc1ccccc1CCc1cc(C(C)(C)C)c(O)c(C(C)(C)C)c1
147 °C	CC[C@@H]1CCCN1CCc1cc2cc(-c3ccc(C#N)cc3)ccc2o1
150 to 151 °C	CSC(Nc1cccc(CNC(=O)OC(C)(C)C)c1)=C(C#N)C#N
184 °C	CCOCn1c(C(=O)c2cc(C)cc(C)c2)c(CC)c(=O)[nH]c1=O
155 °C	CC1(C)Cc2nc(N3CCOc4ccc(Br)cc43)sc2C(=O)N1
192 to 193 °C	COc1cc(C=CC2=NN=C(C)Cc3cc(OC)c(OC)cc32)ccc1O
142 to 144 °C	CC(C)n1nc(-c2sc(NC(=O)CNCCO)nc2-c2ccccc2)ccc1=O
192 to 194 °C	CCOC(=O)COCCN(C)C(=O)c1c(-c2ccc(C(C)(C)C)cc2)n(C)n(-c2ccc(C#N)cc2)c1=O
222 °C	O=C1c2cccc3cc4ccccc4c(c23)C(=O)N1CCN1CCCN(CCN2C(=O)c3cccc4cc5ccccc5c(c34)C2=O)C1
150 to 151 °C	O=C(NCCSSCCNC(=O)c1ccc(OC(F)(F)F)cc1)c1ccc(OC(F)(F)F)cc1
196 to 198 °C	CC(=O)Nc1ccc(OC(C)=O)c(C(=O)O)c1
127 to 130 °C	CCCCNC(=O)c1cnc2cccc(C)n2c1=O
207 °C	Cc1c(C(=O)OC(C)(C)C)c(O)cc2c1C(=O)c1c(O)cccc1C2=O

melting point	Compound
171 to 173 °C	CCCc1nc2c(N)nc3cccnc3c2n1CC1(O)CCOC1 (configuration not stated)
154 to 155 °C	COc1c(C(=O)O)oc2c3ccccc3n(-c3ccccc3)c12
143 to 146 °C	COc1c(C=CC(=O)O)cccc1Oc1ccccc1C
126 to 129 °C	CCOC(=O)C=C(c1ccccc1)c1cc([N+](=O)[O-])ccc1NS(=O)(=O)c1ccc(OC)cc1
77 to 81 °C	CCNC(=O)c1cnn(C)c1[Si](C)(C)C
215 to 216 °C	CCCCn1nc2c(N)nc3ccccc3c2c1CC
154 °C	OCCN1CCC(=C2c3ccccc3CCn3ncnc32)CC1
98 to 100 °C	CC(C)OP(=O)(OC(C)C)C(Nc1ccccn1)P(=O)(OC(C)C)OC(C)C
196 to 198 °C	Cc1nnc2c(NC3CCCC3)nc3ccccc3n12
133 to 135 °C	CC(C)(C)OC(=O)NN1CCC(C(=O)O)CC1
226 to 230 °C	CCc1nc2c(N)nc3ccc(OCc4ccccc4)cc3c2n1CCCCNC(=O)c1ccccc1
161 to 162 °C	COc1cc(OCC(=O)O)c(C)cc1SCc1ccc(-c2ccc(Cl)c(Cl)c2)cc1
179 to 185 °C	O=[N+]([O-])c1cc(CS)cc(O)c1O
198 to 202 °C	O=c1[nH]nc(-c2cccc(OCc3csc(-c4ccccc4F)n3)c2)o1
142 to 144 °C	O=C(O)Cc1ccsc1Cc1nc2c(F)c(F)cc(F)c2s1
152 to 153 °C	CC1CC(C)OP(=O)(Cc2ccc([N+](=O)[O-])cc2)O1 (configuration not stated)
123 to 126 °C	OCCCc1ccncc1O
85 to 90 °C	CCN1Cc2ccccc2N(CC)C(Nc2nc(Nc3cc4c(cc3OC)CCN(CC(=O)N(C)C)CC4)ncc2Cl)C1 (configuration not stated)
78 °C	COc1c(C=O)c(C)cc2c1C(C)(C)CCC2(C)C
168 to 170 °C	N#CCC(O)(c1ccccc1C(F)(F)F)c1ccccc1C(F)(F)F
154 to 156 °C	CCOC(=NC(=O)Nc1ccc(Cl)cc1)N1Cc2ccccc2-c2ccccc2C1
157 to 158 °C	COC1=C(C(=O)NNC(=O)Cc2ccc(F)cc2)CN(C(C)C)C1=O

Compound	melting point
CC(C)(C)C(O)CN1C(=O)C(N)C(=O)N(c2ccccc2F)c2ccccc21 (configuration not stated)	104 to 105 °C
CC(=O)OC1CCN2C(=O)N(c3ccc(C#N)c4ccccc34)C(=O)C12 (configuration not stated)	105 °C
Fc1ccc2sc(CCl)nc2c1	99 to 101 °C
COC(=O)[C@@H]1C[C@H](OC(=O)c2cccnc2)C(=O)[C@H]2[C@@]1(C)CC[C@H]1C(=O)O[C@H](c3ccoc3)C[C@]21C	200 to 204 °C
CCC1CC(=O)C2Oc3c(OC)ccc4c3C23CCN(C#N)C(C4)C13 (configuration not stated)	212 to 217 °C
CC(C)(C)NC(=O)c1nn(-c2cc(F)cc(F)c2)c2c1C1CCC2C1 (configuration not stated)	103 to 107 °C
C#CC[C@]12C=CC(=O)C=C1CC[C@H]1[C@@H]3CCC(=O)[C@@]3(C)CC[C@@H]12	200 to 201 °C
CC(=O)OCC12CCC(OC(C)=O)CC1CC=C1C2CCC2(C)C(OC(=O)C(C)(C)C)CCC12O (configuration not stated)	141 to 142 °C
N#Cc1ccc(N2C(=O)N(CCCCO)C3(CCSCC3)C2=O)cc1C(F)(F)F	139 to 140 °C
